In patent publication US20060275238A1, “Topical cosmetic formulations for regulating and improving the moisture content of the skin” (Goldschmidt GmbH, priority 2005, published 2006):

What was measured:
[1] = In vitro sorption-desorption properties of moisturizers (weight increase vs relative atmospheric humidity); type: physicochemical; details: 24 h each; for ability to absorb water as the atmospheric humidity increases: 20% to 80% r.h. in 10% stages; for ability to store/hold the absorbed water as the atmospheric humidity decreases (hysteresis behavior): 80% r.h. reduced in 10% stages
Procedure: In order to determine the in vitro sorption-desorption properties of moisturizers, these were firstly dried overnight at 80° C. and 0% relative humidity (r.h.) and then cooled to room temperature in a desiccator. 4-5 g of the moisturizer substance were then placed into a Petri dish and stored for 24 h at 20% rh. The weight increase was recorded and the atmospheric humidity was then increased by 10%. After 24 h, the weight of the moisturizer was monitored again. This was repeated in stages to an atmospheric humidity of 80%. The atmospheric humidity was then reduced again every 24 h in 10% stages and the weight decrease was recorded.

skin = assay: Corneometry, skin moisture before and after single application of test formulation; type: in vivo, subjects; details: single application in O/W cream, contact time two hours; concentration as in 10% active ingredient combination 1
Procedure: Corneometry is a noninvasive method which permits conclusions relating to the skin moisture on the basis of changes in the physical parameters within the stratum corneum. In practice, 12 to 15 subjects are recruited whose skin moisture is measured before and after single application of the test formulations using a HM99 corneometer (Courage & Khazaka, Cologne, Germany) according to the manufacturer's instructions.
After climatization of the subjects over 15 minutes under defined conditions of 22° C. and 55% relative humidity, the skin hydration is determined corneometrically and afterwards 50 mg of the test formulation are applied to a skin area each with a diameter of 2.5 cm, and after […] any residues of the formulation are removed.
After a contact time of two hours, the skin hydration is measured again following climatization of 15 minutes (22° C., 55% rel. humidity). An increase of the relative corneometer units CU correlates directly with improved skin hydration.
The concentrations of the individual substances were chosen so that they correspond to the concentration in 10% active ingredient combination 1.

| Structure (SMILES) | ability to absorb water as the atmospheric humidity increases [1] | ability to store/hold the absorbed water as the atmospheric humidity decreases (hysteresis behavior) [1] | ΔCU, increase in the relative corneometer units compared with the blank formulation (skin) [CU] |
| --- | --- | --- | --- |
| OCC(O)CO [glycerol, 1,2,3-propanetriol, reference compound] | absorb the largest possible amounts of water | not able to do |  |
| CC(O)C(=O)[O-].[K+] (stereo not drawn) [potassium lactate, Potassium lactate] |  |  | 1.6 |
| C[N+](C)(C)CC(=O)[O-] [trimethylglycine, Trimethylglycine] | very good ability to absorb water | able to hold onto the absorbed water | 3.2 |
| NC(N)=O [urea, Urea] | very good ability to absorb water | able to hold onto the absorbed water | 3.6 |
